In ChEMBL document CHEMBL5352429, “Designed symmetrical β-hairpin peptides for treating multidrug-resistant salmonella typhimurium infections” (Eur J Med Chem, 2022):
Values after ≈ are worked out from the molar mass of the structure shown. Active and inactive are the calls of the source. The rule behind the calls is not given here. Peptide text beside a SMILES is read from it.

Legend:
[1] = Antibacterial activity against Salmonella enterica subsp. enterica serovar Choleraesuis ATCC 13312 incubated overnight by standard microtiter dilution method; format: functional
RAW264.7 [2] = assay: Inhibition of LPS-stimulated IL-8 production in mouse RAW264.7 cells at 1 to 128 ug/ml incubated for 24 hrs by ELISA analysis; format: functional, cell-based; details: dose 1-128 µg/ml
Salmonella typhimurium [3] = assay: Antibacterial activity against Salmonella typhimurium DT104 in the presence of CaCl2 by MH broth based assay; format: functional, Salmonella enterica subsp. enterica serovar Typhimurium; details: Salmonella enterica
Lipopolysaccharide (LPS) = assay: Displacement of BODIPY-TR-cadaverine from Salmonella typhimurium LPS assessed as increase in fluorescence intensity by fluorescence spectrophotometric analysis; details: Salmonella enterica subsp. enterica serovar Typhimurium; dose 0.25-8 µg/ml
RAW264.7 [4] = assay: Inhibition of LPS-stimulated IL-1beta production in mouse RAW264.7 cells at 1 to 128 ug/ml incubated for 24 hrs by ELISA analysis; format: functional, cell-based; details: dose 1-128 µg/ml
Candida albicans = assay: Antifungal activity against Candida albicans ATCC 10231 incubated overnight by standard microtiter dilution method; format: functional
[5] = Antibacterial activity against Salmonella blockley CICC 21489 incubated overnight by standard microtiter dilution method; format: functional, Salmonella enterica subsp. enterica serovar Blockley; details: Salmonella enterica
[6] = test system: Staphylococcus epidermidis; assay: Antibacterial activity against methicillin-resistant Staphylococcus epidermidis ATCC 12228 incubated overnight by standard microtiter dilution method; format: functional
Escherichia coli = assay: Antibacterial activity against Escherichia coli O157:H7 CICC 21530 incubated overnight by standard microtiter dilution method; format: functional
Salmonella typhimurium [7] = assay: Antibacterial activity against Salmonella typhimurium CICC 21483 incubated overnight by standard microtiter dilution method; format: functional, Salmonella enterica subsp. enterica serovar Typhimurium; details: Salmonella enterica
Staphylococcus aureus [8] = assay: Antibacterial activity against Staphylococcus aureus ATCC 29213 incubated overnight by standard microtiter dilution method; format: functional
[9] = Antibacterial activity against Salmonella wandsworth CICC 21504 incubated overnight by standard microtiter dilution method; format: functional, Salmonella enterica subsp. enterica serovar Wandsworth; details: Salmonella enterica
Salmonella typhimurium [10] = assay: Antibacterial activity against Salmonella typhimurium DT104 in the presence of FeCl3 by MH broth based assay; format: functional, Salmonella enterica subsp. enterica serovar Typhimurium; details: Salmonella enterica
Salmonella typhimurium [11] = assay: Antibacterial activity against Salmonella typhimurium DT104 in the presence of NaCl by MH broth based assay; format: functional, Salmonella enterica subsp. enterica serovar Typhimurium; details: Salmonella enterica
Salmonella enteritidis = assay: Antibacterial activity against Salmonella enteritidis CICC 21527 incubated overnight by standard microtiter dilution method; format: functional, Salmonella enterica subsp. enterica serovar Enteritidis; details: Salmonella enterica
RAW264.7 [12] = assay: Inhibition of LPS-stimulated TNF-alpha production in mouse RAW264.7 cells at 1 to 128 ug/ml incubated for 24 hrs by ELISA analysis; format: functional, cell-based; details: dose 1-128 µg/ml
[13] = Antibacterial activity against Salmonella dublin CICC 21497 incubated overnight by standard microtiter dilution method; format: functional, Salmonella enterica subsp. enterica serovar Dublin; details: Salmonella enterica
[14] = test system: Salmonella enterica subsp. enterica serovar Paratyphi B; assay: Antibacterial activity against Salmonella paratyphi B CICC 21495 incubated overnight by standard microtiter dilution method; format: functional
Salmonella paratyphi = assay: Antibacterial activity against Salmonella paratyphi A CICC 21501 incubated overnight by standard microtiter dilution method; format: functional, Salmonella enterica subsp. enterica serovar Paratyphi A; details: Salmonella enterica
RAW264.7 [15] = assay: Inhibition of LPS-stimulated NO production in mouse RAW264.7 cells incubated for 24 hrs by Griess reagent based analysis; format: functional, cell-based; details: dose 1-128 µg/ml
Enterococcus faecalis = assay: Antibacterial activity against Enterococcus faecalis ATCC 29212 incubated overnight by standard microtiter dilution method; format: functional
Salmonella typhimurium [16] = assay: Antibacterial activity against Salmonella typhimurium DT104 in the presence of MgCl2 by MH broth based assay; format: functional, Salmonella enterica subsp. enterica serovar Typhimurium; details: Salmonella enterica
Erythrocyte = assay: Hemolytic activity in human Red blood cells assessed as hemolysis incubated for 1 hrs by absorbance based microplate reader analysis; format: toxicity, cell-based
Salmonella typhimurium [17] = assay: Antibacterial activity against Salmonella typhimurium CICC 21913 incubated overnight by standard microtiter dilution method; format: functional, Salmonella enterica subsp. enterica serovar Typhimurium; details: Salmonella enterica
[18] = Antibacterial activity against Salmonella enterica subsp. enterica serovar Choleraesuis CICC 21493 incubated overnight by standard microtiter dilution method; format: functional
[19] = Hemolytic activity in human Red blood cells assessed as hemolysis at 128 ug/ml incubated for 1 hrs by absorbance based microplate reader analysis relative to control; format: toxicity, cell-based, Erythrocyte; details: red blood cells (erythrocytes), at 128 µg/mL, read-out: Activity
Salmonella typhimurium [20] = assay: Antibacterial activity against Salmonella typhimurium DT104 in the presence of KCl by MH broth based assay; format: functional, Salmonella enterica subsp. enterica serovar Typhimurium; details: Salmonella enterica
Salmonella typhimurium [21] = assay: Antibacterial activity against Salmonella typhimurium DT104 in the presence of NH4Cl by MH broth based assay; format: functional, Salmonella enterica subsp. enterica serovar Typhimurium; details: Salmonella enterica
[22] = Antibacterial activity against Salmonella paratyphi C CICC 21512 incubated overnight by standard microtiter dilution method; format: functional, Salmonella enterica subsp. enterica serovar Paratyphi C; details: Salmonella enterica
Salmonella typhimurium [23] = assay: Antibacterial activity against Salmonella typhimurium DT104 in the presence 50% inactivated mouse serum by MH broth based assay; format: functional, Salmonella enterica subsp. enterica serovar Typhimurium; details: Salmonella enterica
Salmonella typhimurium [24] = assay: Antibacterial activity against Salmonella typhimurium DT104 in the presence 25% inactivated mouse serum by MH broth based assay; format: functional, Salmonella enterica subsp. enterica serovar Typhimurium; details: Salmonella enterica
Salmonella typhimurium [25] = assay: Antibacterial activity against Salmonella typhimurium DT104 ATCC 700408 incubated overnight by standard microtiter dilution method; format: functional, Salmonella enterica subsp. enterica serovar Typhimurium; details: Salmonella enterica
Staphylococcus aureus [26] = assay: Antibacterial activity against methicillin-resistant Staphylococcus aureus ATCC 43300 incubated overnight by standard microtiter dilution method; format: functional

## CC(C)C[C@H](NC(=O)[C@H](CCCCN)NC(=O)[C@H](CS)NC(=O)CNC(=O)[C@H](CO)NC(=O)[C@H](CCCCN)NC(=O)[C@@H](NC(=O)[C@H](CS)NC(=O)[C@H](CCCCN)NC(=O)[C@@H](N)CC(C)C)[C@@H](C)O)C(N)=O (H-LKCTKSGCKL-NH2)
[1]
  MIC: > 128 µg/mL
RAW264.7 [2]
  inhibition: Active
Salmonella typhimurium [3]
  MIC: > 128 µg/mL
Lipopolysaccharide (LPS)
  Activity: Dose-Dependent Effect
RAW264.7 [4]
  inhibition: Active
Candida albicans
  MIC: > 128 µg/mL
[5]
  MIC: > 128 µg/mL
[6]
  MIC: > 128 µg/mL
Escherichia coli
  MIC: > 128 µg/mL
Salmonella typhimurium [7]
  MIC: > 128 µg/mL
Staphylococcus aureus [8]
  MIC: > 128 µg/mL
[9]
  MIC: > 128 µg/mL
Salmonella typhimurium [10]
  MIC: > 128 µg/mL
Salmonella typhimurium [11]
  MIC: > 128 µg/mL
Salmonella enteritidis
  MIC: > 128 µg/mL
RAW264.7 [12]
  inhibition: Active
[13]
  MIC: > 128 µg/mL
[14]
  MIC: > 128 µg/mL
Salmonella paratyphi
  MIC: > 128 µg/mL
RAW264.7 [15]
  inhibition: Dose-Dependent Effect
Enterococcus faecalis
  MIC: > 128 µg/mL
Salmonella typhimurium [16]
  MIC: > 128 µg/mL
Erythrocyte
  MHC: > 128 µg/mL
Salmonella typhimurium [17]
  MIC: > 128 µg/mL
[18]
  MIC: > 128 µg/mL
[19]
  hemolysis at 1 h, 128 ug/ml: < 10%
Salmonella typhimurium [20]
  MIC: > 128 µg/mL
Salmonella typhimurium [21]
  MIC: > 128 µg/mL
[22]
  MIC: > 128 µg/mL
Salmonella typhimurium [23]
  MIC: > 128 µg/mL
Salmonella typhimurium [24]
  MIC: > 128 µg/mL
Salmonella typhimurium [25]
  MIC: > 128 µg/mL
Staphylococcus aureus [26]
  MIC: > 128 µg/mL

## C[C@@H](O)[C@H](NC(=O)[C@H](CS)NC(=O)[C@H](CCCCN)NC(=O)[C@@H](N)Cc1c[nH]c2ccccc12)C(=O)N[C@@H](CCCCN)C(=O)N[C@@H](CO)C(=O)NCC(=O)N[C@@H](CS)C(=O)N[C@@H](CCCCN)C(=O)N[C@@H](Cc1c[nH]c2ccccc12)C(N)=O (H-WKCTKSGCKW-NH2)
[1]
  MIC: 8 µg/mL (≈ 6.53 µM)
RAW264.7 [2]
  inhibition: Active
Salmonella typhimurium [3]
  MIC: > 128 µg/mL
Lipopolysaccharide (LPS)
  Activity: Dose-Dependent Effect
RAW264.7 [4]
  inhibition: Active
Candida albicans
  MIC: 64 µg/mL (≈ 52.2 µM)
[5]
  MIC: > 128 µg/mL
[6]
  MIC: 128 µg/mL (≈ 104 µM)
Escherichia coli
  MIC: 64 µg/mL (≈ 52.2 µM)
Salmonella typhimurium [7]
  MIC: > 128 µg/mL
Staphylococcus aureus [8]
  MIC: > 128 µg/mL
[9]
  MIC: 64 µg/mL (≈ 52.2 µM)
Salmonella typhimurium [10]
  MIC: > 128 µg/mL
Salmonella typhimurium [11]
  MIC: > 128 µg/mL
Salmonella enteritidis
  MIC: > 128 µg/mL
RAW264.7 [12]
  inhibition: Active
[13]
  MIC: > 128 µg/mL
[14]
  MIC: 16 µg/mL (≈ 13.1 µM)
Salmonella paratyphi
  MIC: 128 µg/mL (≈ 104 µM)
RAW264.7 [15]
  inhibition: Dose-Dependent Effect
Enterococcus faecalis
  MIC: 128 µg/mL (≈ 104 µM)
Salmonella typhimurium [16]
  MIC: > 128 µg/mL
Erythrocyte
  MHC: > 128 µg/mL
Salmonella typhimurium [17]
  MIC: > 128 µg/mL
[18]
  MIC: > 128 µg/mL
[19]
  hemolysis at 1 h, 128 ug/ml: < 10%
Salmonella typhimurium [20]
  MIC: > 128 µg/mL
Salmonella typhimurium [21]
  MIC: > 128 µg/mL
[22]
  MIC: 64 µg/mL (≈ 52.2 µM)
Salmonella typhimurium [23]
  MIC: > 128 µg/mL
Salmonella typhimurium [24]
  MIC: > 128 µg/mL
Salmonella typhimurium [25]
  MIC: > 128 µg/mL
Staphylococcus aureus [26]
  MIC: > 128 µg/mL

## [H]/N=C(/N)N[C@H]1[C@H](O)[C@@H](O)[C@H](O[C@@H]2O[C@@H](C)[C@](O)(C=O)[C@H]2O[C@@H]2O[C@@H](CO)[C@H](O)[C@@H](O)[C@@H]2NC)[C@@H](N/C(N)=N\[H])[C@@H]1O [STREPTOMYCIN]
Erythrocyte
  MHC: > 128 µg/mL
